{"source": "ChEMBL document CHEMBL1142200", "about": "“Efficacy of delayed treatment with ST-246 given orally against systemic orthopoxvirus infections in mice” (Antimicrob Agents Chemother, 2007)", "key": {"[1]": {"test_system": "Mus musculus", "assay": "Effect on mortality of A/NCr mouse inoculated with 410 PFU ectromelia virus at 100 mg/kg after 4 hrs of viral infection, ip once daily for 14 days", "format": "functional", "settings": "route intraperitoneal"}, "[2]": {"test_system": "Mus musculus", "assay": "Effect on mortality of A/NCr mouse inoculated with 41 PFU ectromelia virus at 100 mg/kg after 4 hrs of viral infection, ip once daily for 14 days", "format": "functional", "settings": "route intraperitoneal"}, "[3]": {"assay": "Selectivity index, ratio of CC50 for HFF cells to EC50 for Vaccinia virus WR infected HFF cells", "format": "functional"}, "[4]": {"test_system": "Mus musculus", "assay": "Effect on mortality of A/NCr mouse inoculated with ectromelia virus at 100 mg/kg after 72 hrs of viral infection, ip once daily for 10 days relative control", "format": "functional", "settings": "route intraperitoneal"}, "[5]": {"test_system": "Vaccinia virus", "assay": "Reduction of Vaccinia virus WR replication in BALB/c mouse kidney at 15 mg/kg after 24 hrs of viral infection, ip for 5 days", "format": "functional, organism-based", "set-up": "dose 15 mg/kg", "settings": "Orthopoxvirus vaccinia"}, "[6]": {"test_system": "Vaccinia virus", "assay": "Reduction of Vaccinia virus WR replication in BALB/c mouse liver at 15 mg/kg after 24 hrs of viral infection, ip for 5 days", "format": "functional, organism-based", "set-up": "dose 15 mg/kg", "settings": "Orthopoxvirus vaccinia"}, "[7]": {"test_system": "Mus musculus", "assay": "Effect on mortality of A/NCr mouse inoculated with ectromelia virus at 100 mg/kg after 24 hrs of viral infection, ip once daily for 10 days relative control", "format": "functional", "settings": "route intraperitoneal"}, "[8]": {"test_system": "Mus musculus", "assay": "Effect on mortality of A/NCr mouse inoculated with ectromelia virus at 100 mg/kg after 0 hrs of viral infection, ip once daily for 10 days relative control", "format": "functional", "settings": "route intraperitoneal"}, "[9]": {"test_system": "Mus musculus", "assay": "Effect on mortality of A/NCr mouse inoculated with 4.1 PFU ectromelia virus at 100 mg/kg after 4 hrs of viral infection, ip once daily for 14 days", "format": "functional", "settings": "route intraperitoneal"}, "[10]": {"test_system": "Mus musculus", "assay": "Effect on mortality of BALB/c mouse inoculated with Cowpox virus at 15 mg/kg after 4 hrs of viral infection, ip once daily for 5 days relative to control", "format": "functional", "settings": "route intraperitoneal"}, "[11]": {"test_system": "Vaccinia virus", "assay": "Reduction of Vaccinia virus WR replication in BALB/c mouse spleen at 15 mg/kg after 24 hrs of viral infection, ip for 5 days", "format": "functional, organism-based", "set-up": "dose 15 mg/kg", "settings": "Orthopoxvirus vaccinia"}, "[12]": {"test_system": "Mus musculus", "assay": "Effect on mortality of BALB/c mouse inoculated with Cowpox virus BR at 50 mg/kg after 24 hrs of viral infection, po for 9 days", "format": "functional, organism-based", "set-up": "dose 50 mg/kg"}, "[13]": {"assay": "Selectivity index, ratio of CC50 for HFF cells to EC50 for Cowpox virus Brighton infected HFF cells", "format": "functional"}, "[14]": {"test_system": "Mus musculus", "assay": "Effect on mortality of A/NCr mouse inoculated with ectromelia virus at 100 mg/kg after 48 hrs of viral infection, ip once daily for 10 days relative control", "format": "functional", "settings": "route intraperitoneal"}, "[15]": {"test_system": "Cowpox virus", "assay": "Reduction of Cowpox virus BR replication in BALB/c mouse spleen at 15 mg/kg after 24 hrs of viral infection, ip for 5 days", "format": "functional, organism-based", "set-up": "dose 15 mg/kg"}, "[16]": {"test_system": "Mus musculus", "assay": "Effect on mortality of BALB/c mouse inoculated with Cowpox virus BR at 15 mg/kg after 24 hrs of viral infection, ip for 5 days relative to control", "format": "functional", "settings": "route intraperitoneal"}, "[17]": {"test_system": "Mus musculus", "assay": "Effect on mortality of BALB/c mouse inoculated with Cowpox virus at 15 mg/kg after 48 hrs of viral infection, ip once daily for 5 days relative to control", "format": "functional", "settings": "route intraperitoneal"}, "[18]": {"test_system": "Mus musculus", "assay": "Effect on mortality of BALB/c mouse inoculated with Vaccinia virus WR at 15 mg/kg after 24 hrs of viral infection, ip for 5 days relative to control", "format": "functional", "settings": "route intraperitoneal"}, "[19]": {"test_system": "Cowpox virus", "assay": "Reduction of Cowpox virus BR replication in BALB/c mouse liver at 15 mg/kg after 24 hrs of viral infection, ip for 5 days", "format": "functional, organism-based", "set-up": "dose 15 mg/kg"}, "[20]": {"assay": "Cytotoxicity against HFF cells", "format": "cell-based", "settings": "human"}, "[21]": {"test_system": "Mus musculus", "assay": "Effect on mortality of BALB/c mouse inoculated with Cowpox virus at 15 mg/kg after 24 hrs of viral infection, ip once daily for 5 days relative to control", "format": "functional", "settings": "route intraperitoneal"}, "[22]": {"test_system": "Cowpox virus", "assay": "Reduction of Cowpox virus BR replication in BALB/c mouse kidney at 15 mg/kg after 24 hrs of viral infection, ip for 5 days", "format": "functional, organism-based", "set-up": "dose 15 mg/kg"}, "[23]": {"test_system": "Mus musculus", "assay": "Effect on mortality of BALB/c mouse inoculated with Cowpox virus at 15 mg/kg after 72 hrs of viral infection, ip once daily for 5 days relative to control", "format": "functional", "settings": "route intraperitoneal"}, "[24]": {"assay": "Selectivity index, ratio of CC50 for HFF cells to EC50 for Vaccinia virus Copenhagen infected HFF cells", "format": "functional"}, "[25]": {"test_system": "Mus musculus", "assay": "Effect on mortality of A/NCr mouse inoculated with 4100 PFU ectromelia virus at 100 mg/kg after 4 hrs of viral infection, ip once daily for 14 days", "format": "functional", "settings": "route intraperitoneal"}}, "note": "Activity calls are given as the source filed them. No cut-off for these calls is given here.", "data": [{"molecule": "Nc1ccn(C[C@@H](CO)OCP(=O)(O)O)c(=O)n1.O.O", "note": "[CIDOFOVIR]", "values": [{"measurement": "Activity", "setting": "[1]", "value": 0, "unit": "%"}, {"measurement": "Activity", "setting": "[2]", "value": 40, "unit": "%"}, {"measurement": "Ratio CC50/EC50", "setting": "[3]", "value": ">9.6"}, {"measurement": "Activity", "setting": "[4]", "value": 0, "unit": "%"}, {"measurement": "Activity", "setting": "[5]", "value": "Active"}, {"measurement": "Activity", "setting": "[6]", "value": "Active"}, {"measurement": "Activity", "setting": "[7]", "value": 0, "unit": "%"}, {"measurement": "Activity", "setting": "[8]", "value": 0, "unit": "%"}, {"measurement": "Activity", "setting": "[9]", "value": 0, "unit": "%"}, {"measurement": "Activity", "setting": "[10]", "value": 0, "unit": "%"}, {"measurement": "Activity", "setting": "[11]", "value": "Active"}, {"measurement": "Activity", "setting": "[12]", "value": "Active"}, {"measurement": "Ratio CC50/EC50", "setting": "[13]", "value": ">7.7"}, {"measurement": "Activity", "setting": "[14]", "value": 0, "unit": "%"}, {"measurement": "Activity", "setting": "[15]", "value": "Active"}, {"measurement": "Activity", "setting": "[16]", "value": 0, "unit": "%"}, {"measurement": "Activity", "setting": "[17]", "value": 0, "unit": "%"}, {"measurement": "Activity", "setting": "[18]", "value": 7, "unit": "%"}, {"measurement": "Activity", "setting": "[19]", "value": "Active"}, {"measurement": "CC50", "setting": "[20]", "value": "> 317", "unit": "µM"}, {"measurement": "Activity", "setting": "[21]", "value": 0, "unit": "%"}, {"measurement": "Activity", "setting": "[22]", "value": "Active"}, {"measurement": "Activity", "setting": "[23]", "value": 0, "unit": "%"}, {"measurement": "Ratio CC50/EC50", "setting": "[24]", "value": ">10.9"}, {"measurement": "Activity", "setting": "[25]", "value": 0, "unit": "%"}]}]}
